Patent US20120255051A1, “HERBICIDE TOLERANT PLANTS” (priority 2009, published 2012)
“And” between values parts separate entries of the source, which are not always exact repeats. Equal entries are not always repeated.

What was measured:
Assay type in all cases: in vivo, Brassica napus
[1] = tested on: Brassica plants comprising mutant AHAS alleles; assay: Greenhouse pre-planting application (20 g a.i./ha): vigor scores; details: for vigor score Av, pre-planting (2, 3 and 4 weeks after treatment): 20 g a.i./ha
Experimental: In another experiment, the effect of combining AHAS full knockouts with AHAS missense herbicide tolerant alleles on tolerance to thiencarbazone-methyl pre-planting application and thiencarbazone-methyl post-emergence spraying was tested in the greenhouse. To this end, the Brassica plants identified in Example 1 and 2 were backcrossed two times with an elite parent line, and subsequently selfed twice to obtain homozygous plants (BC2S2). Treatment pre-planting was carried out on the soil just after sowing with a dose of 20 g a.i./ha of thiencarbazone methyl. For assessment of vigor scores, plants were evaluated on a scale of 1 to 9, where 1=dead, 3=poor, 6=some aberrant phenotype and 9=vigorous. The vigor scores are an average of the scores taken at 2, 3 and 4 weeks after treatment. Treatment post-emergence at the first leaf stage was carried out with a dose of 10 g a.i./ha of thiencarbazone-methyl. The vigor scores are an average of the scores taken 1, 2 and 3 weeks after the treatment. The average values (Av) and standard deviations (SD) of the vigor scores are represented in Table 6.

[2] = tested on: Brassica plants comprising mutant AHAS alleles; assay: Field trial, post-emergence treatment (0, 10, 20 g a.i./ha), location A: PPTOX and VIG1 scores; details: for vigor1 (VIG1) score, Av: 7 days after spray
Experimental: The correlation between the presence of full knockout and missense AHAS genes in Brassica plants on plant growth and herbicide tolerance of the Brassica plants in the field on location A was also tested upon post-emergence herbicide treatment. The field setup was the same as for the pre-planting field trial. Post-emergence treatment was carried out on the 2-4 leaf stage with a rate of 0 (treatment A), 10 (treatment B), 20 (treatment C) g a.i./ha of thiencarbazone methyl. The phytotoxicity (PPTOX) and vigor1 (VIG1; vigor scores 7 days after herbicide spray) were determined as described above. The average values (Av) and standard deviations (SD) of the scores for the different parameters are represented in Table 9.

[3] = tested on: Brassica plants comprising mutant AHAS alleles; assay: Greenhouse post-emergence spray test (5 g a.i./ha): survival and plant type rating; set-up: key to number of surviving plants in plant type 4 / number of surviving plants in plant type 5 / number of surviving plants in plant type 2: 5: normal (corresponding to wildtype unsprayed phenotype); 4: normal height, some side branching, normal leaves; 3: intermediate height, intermediate side branching, normal leaves; 2: short, severe side branching (“bushy”), some leave malformations; 1: short, severe side branching (“bushy”), severe leave malformations; details: 5 g a.i./ha post-emergence
Experimental: The correlation between the presence of missense and/or full knockout AHAS alleles in a Brassica plant grown in the greenhouse and tolerance to thiencarbazone-methyl was determined as follows. Of the Brassica plants identified in Example 1 and 2, crosses were made to obtain plants comprising both mutant AHAS1 and AHAS3 alleles (F1), which were subsequently backcrossed and selfed (BC1S1). Single gene AHAS missense mutants were backcrossed twice (BC2). These BC1S1 (representing all possible genotype combinations), as well as BC2 single AHAS gene mutant plants (50%+/+, 50%+/−), were sown in a greenhouse. Treatment post-emergence at the 1-2 leaf stage was carried out with a dose of 5 g a.i./ha of thiencarbazone-methyl and surviving plants were transplanted to 9 cm pots 10 days after spraying. The plants were evaluated for phenotype (height, side branching and leave morphology) 20 days after transplantation on scale of 5 to 1, where; type 5=normal (corresponding to wildtype unsprayed phenotype); type 4=normal height, some side branching, normal leaves; type 3=intermediate height, intermediate side branching, normal leaves; type 2=short, severe side branching (“bushy”), some leave malformations; type 1=short, severe side branching (“bushy”), severe leave malformations (Table 4).

[4] = Elite parent line plants, 10 g a.i./ha (treatment B) post-emergence
[5] = Elite parent line plants, 20 g a.i./ha (treatment C) post-emergence
[6] = plants AHAS1 HETO108 / AHAS3 HETO104, 10 g a.i./ha (treatment B) post-emergence
[7] = plants AHAS1 HETO108 / AHAS3 HETO104, 20 g a.i./ha (treatment C) post-emergence
[8] = plants AHAS1 HETO108 / AHAS3 HETO111, 10 g a.i./ha (treatment B) post-emergence
[9] = plants AHAS1 HETO108 / AHAS3 HETO111, 20 g a.i./ha (treatment C) post-emergence
[10] = plants AHAS1 HETO108 / AHAS3 WT, 10 g a.i./ha (treatment B) post-emergence
[11] = plants AHAS1 HETO108 / AHAS3 WT, 20 g a.i./ha (treatment C) post-emergence
[12] = plants AHAS1 HETO112 / AHAS3 HETO111, 10 g a.i./ha (treatment B) post-emergence
[13] = plants AHAS1 HETO112 / AHAS3 HETO111, 20 g a.i./ha (treatment C) post-emergence
[14] = plants AHAS1 HETO112 / AHAS3 WT, 10 g a.i./ha (treatment B) post-emergence
[15] = plants AHAS1 HETO112 / AHAS3 WT, 20 g a.i./ha (treatment C) post-emergence
[16] = plants AHAS1 WT / AHAS3 HETO104, 10 g a.i./ha (treatment B) post-emergence
[17] = plants AHAS1 WT / AHAS3 HETO104, 20 g a.i./ha (treatment C) post-emergence
[18] = plants AHAS1 WT / AHAS3 HETO111, 10 g a.i./ha (treatment B) post-emergence
[19] = plants AHAS1 WT / AHAS3 HETO111, 20 g a.i./ha (treatment C) post-emergence
[20] = plants AHAS1 WT / AHAS3 WT, 10 g a.i./ha (treatment B) post-emergence
[21] = plants AHAS1 WT / AHAS3 WT, 20 g a.i./ha (treatment C) post-emergence
[22] = BC1S1 HETO108/HETO102, 204 sown, 201 germinated
[23] = BC1S1 HETO108/HETO103, 204 sown, 199 germinated
[24] = BC1S1 HETO108/HETO104, 204 sown, 200 germinated
[25] = BC1S1 HETO112/HETO111, 204 sown, 204 germinated
[26] = BC2 HETO108, 51 sown, 50 germinated
[27] = BC2 HETO111, 51 sown, 49 germinated

COC(=O)c1csc(C)c1S(=O)(=O)NC(=O)n1nc(OC)n(C)c1=O [thiencarbazone-methyl, methyl 4-[(4,5-dihydro-3-methoxy-4-methyl-5-oxo-1H-1,2,4-triazol-1-yl)carbonylsulfamoyl]-5-methylthiophene-3-carboxylate]
vigor score Av, pre-planting (2, 3 and 4 weeks after treatment) ([1]; AHAS1 +/+, AHAS3 +/+ (HETO108+HETO104 series)): 1.3 | vigor score Av, pre-planting (2, 3 and 4 weeks after treatment) ([1]; AHAS1 +/+, AHAS3 +/+ (HETO108+HETO111 series)): 1.4 | vigor score Av, pre-planting (2, 3 and 4 weeks after treatment) ([1]; AHAS1 +/+, AHAS3 +/+ (HETO112+HETO111 series)): 1.4 | vigor score Av, pre-planting (2, 3 and 4 weeks after treatment) ([1]; AHAS1 +/+, AHAS3 HETO104/HETO104): 1.3 | vigor score Av, pre-planting (2, 3 and 4 weeks after treatment) ([1]; AHAS1 +/+, AHAS3 HETO111/HETO111 (HETO108+HETO111 series)): 5.2 | vigor score Av, pre-planting (2, 3 and 4 weeks after treatment) ([1]; AHAS1 +/+, AHAS3 HETO111/HETO111 (HETO112+HETO111 series)): 4.8 | vigor score Av, pre-planting (2, 3 and 4 weeks after treatment) ([1]; AHAS1 HETO108/HETO108, AHAS3 +/+ (HETO108+HETO104 series)): 5.3 | vigor score Av, pre-planting (2, 3 and 4 weeks after treatment) ([1]; AHAS1 HETO108/HETO108, AHAS3 +/+ (HETO108+HETO111 series)): 4.4 | vigor score Av, pre-planting (2, 3 and 4 weeks after treatment) ([1]; AHAS1 HETO108/HETO108, AHAS3 HETO104/HETO104): 6.1 | vigor score Av, pre-planting (2, 3 and 4 weeks after treatment) ([1]; AHAS1 HETO108/HETO108, AHAS3 HETO111/HETO111): 7.6 | vigor score Av, pre-planting (2, 3 and 4 weeks after treatment) ([1]; AHAS1 HETO112/HETO112, AHAS3 +/+): 1.4 | vigor score Av, pre-planting (2, 3 and 4 weeks after treatment) ([1]; AHAS1 HETO112/HETO112, AHAS3 HETO111/HETO111): 5.6 | vigor score Av, pre-planting (2, 3 and 4 weeks after treatment) ([1]; Elite parent line treated): 1.8 | thiencarbazone-methyl tolerance of plants homozygous for a missense allele and a full knock-out allele, versus missense allele with other AHAS gene homozygous wild-type ([1]; pre-planting treatment, greenhouse): higher | phytotoxicity (PPTOX) score, Av [2, 4]: 1.00 | vigor1 (VIG1) score, Av [2, 4]: 2.33 | phytotoxicity (PPTOX) score, Av [2, 5]: 1.00 | vigor1 (VIG1) score, Av [2, 5]: 2.33 | phytotoxicity (PPTOX) score, Av [2, 6]: 5.00 | vigor1 (VIG1) score, Av [2, 6]: 5.00 | phytotoxicity (PPTOX) score, Av [2, 7]: 4.00 | vigor1 (VIG1) score, Av [2, 7]: 4.00 | phytotoxicity (PPTOX) score, Av [2, 8]: 6.67 | vigor1 (VIG1) score, Av [2, 8]: 6.67 | phytotoxicity (PPTOX) score, Av [2, 9]: 6.00 | vigor1 (VIG1) score, Av [2, 9]: 6.00 | phytotoxicity (PPTOX) score, Av [2, 10]: 6.00 and 5.67 | vigor1 (VIG1) score, Av [2, 10]: 6.00 and 5.67 | phytotoxicity (PPTOX) score, Av [2, 11]: 4.33 | vigor1 (VIG1) score, Av [2, 11]: 4.67 and 4.33 | phytotoxicity (PPTOX) score, Av [2, 12]: 5.00 | vigor1 (VIG1) score, Av [2, 12]: 5.00 | phytotoxicity (PPTOX) score, Av [2, 13]: 4.67 | vigor1 (VIG1) score, Av [2, 13]: 4.67 | phytotoxicity (PPTOX) score, Av [2, 14]: 1.00 | vigor1 (VIG1) score, Av [2, 14]: 2.00 | phytotoxicity (PPTOX) score, Av [2, 15]: 1.00 | vigor1 (VIG1) score, Av [2, 15]: 1.67 | phytotoxicity (PPTOX) score, Av [2, 16]: 1.00 | vigor1 (VIG1) score, Av [2, 16]: 1.67 | phytotoxicity (PPTOX) score, Av [2, 17]: 1.00 | vigor1 (VIG1) score, Av [2, 17]: 1.67 | phytotoxicity (PPTOX) score, Av [2, 18]: 5.33 and 5.67 | vigor1 (VIG1) score, Av [2, 18]: 5.33 | phytotoxicity (PPTOX) score, Av [2, 19]: 4.67 | vigor1 (VIG1) score, Av [2, 19]: 4.67 | phytotoxicity (PPTOX) score, Av [2, 20]: 1.00 | vigor1 (VIG1) score, Av [2, 20]: 1.67 | phytotoxicity (PPTOX) score, Av [2, 21]: 1.00 | vigor1 (VIG1) score, Av [2, 21]: 2.00 | number of surviving plants in plant type 1 [3, 22]: 108 | number of surviving plants in plant type 2 [3, 22]: 34 | number of surviving plants in plant type 3 [3, 22]: 21 | number of surviving plants in plant type 4 [3, 22]: 1 | number of surviving plants in plant type 5 [3, 22]: 0 | number of surviving plants transplanted after spraying (trans) [3, 22]: 169 | number of surviving plants in plant type 1 [3, 23]: 88 | number of surviving plants in plant type 2 [3, 23]: 18 | number of surviving plants in plant type 3 [3, 23]: 41 | number of surviving plants in plant type 4 [3, 23]: 4 | number of surviving plants in plant type 5 [3, 23]: 0 | number of surviving plants transplanted after spraying (trans) [3, 23]: 151 | number of surviving plants in plant type 1 [3, 24]: 66 | number of surviving plants in plant type 2 [3, 24]: 18 | number of surviving plants in plant type 3 [3, 24]: 28 | number of surviving plants in plant type 4 [3, 24]: 2 | number of surviving plants transplanted after spraying (trans) [3, 24]: 115 | number of surviving plants in plant type 5 ([3]; BC1S1 HETO108/HETO104, 204 sown, 200 germinated (probably missed during spraying)): 1 | number of surviving plants in plant type 1 [3, 25]: 94 | number of surviving plants in plant type 2 [3, 25]: 23 | number of surviving plants in plant type 3 [3, 25]: 35 | number of surviving plants in plant type 4 [3, 25]: 0 | number of surviving plants in plant type 5 [3, 25]: 0 | number of surviving plants transplanted after spraying (trans) [3, 25]: 152 | number of surviving plants in plant type 1 [3, 26]: 20 | number of surviving plants in plant type 2 [3, 26]: 2 | number of surviving plants in plant type 3 [3, 26]: 0 | number of surviving plants in plant type 4 [3, 26]: 0 | number of surviving plants in plant type 5 [3, 26]: 0 | number of surviving plants transplanted after spraying (trans) [3, 26]: 22 | number of surviving plants in plant type 1 [3, 27]: 22 | number of surviving plants in plant type 2 [3, 27]: 0 | number of surviving plants in plant type 3 [3, 27]: 0 | number of surviving plants in plant type 4 [3, 27]: 0 | number of surviving plants in plant type 5 [3, 27]: 0 | number of surviving plants transplanted after spraying (trans) [3, 27]: 25 | number of surviving plants in plant type 1 ([3]; wt, 51 sown, 51 germinated): 0 | number of surviving plants in plant type 2 ([3]; wt, 51 sown, 51 germinated): 0 | number of surviving plants in plant type 3 ([3]; wt, 51 sown, 51 germinated): 0 | number of surviving plants in plant type 4 ([3]; wt, 51 sown, 51 germinated): 0 | number of surviving plants in plant type 5 ([3]; wt, 51 sown, 51 germinated): 0 | number of surviving plants transplanted after spraying (trans) ([3]; wt, 51 sown, 51 germinated): 0
